Results reported in PMC8269059, “Glycyrrhizin Derivatives Suppress Cancer Chemoresistance by Inhibiting Progesterone Receptor Membrane Component 1” (Cancers, 2021).
Read-outs that look alike come from different tables or passages of the source.

Tests used:
heme-dimerized PGRMC1 = biological target: T1, heme-dimerized PGRMC1 (Homo sapiens, UniProt O00264); assay: ITC binding to heme-dimerized PGRMC1; details: for Kd / TΔS / ΔG / ΔH: ITC; for Kd: 298 K, 50 mM phosphate pH 7.0, heme-dimerized PGRMC1 (WT); for TΔS / ΔG / ΔH: heme-dimerized PGRMC1 (WT)
T1 construct: human PGRMC1 intracellular domain residues 43-195; GST (N, cleaved yes); made in house; host or cells: E. coli BL21 (DE3)
Method: Protein expression was induced by adding 1 mM isopropyl-β-thiogalactopyranoside (IPTG) and incubating at 37 °C for 4 h. After harvesting cells, the cell pellets were then resuspended in buffer containing 20 mM Tris-HCl (pH 7.5), 100 mM NaCl, and 0.1% Tween 20, sonicated twice at 4 °C for 5 min, and centrifuged at 20,000× g for 30 min. The supernatant was incubated with glutathione Sepharose 4B (GE Healthcare, Chicago, IL, USA) for 1 h at 4 °C. The resin was then washed five times with the same buffer, and the GST tag cleaved by adding Precision Protease (GE Healthcare) and incubating at 4 °C for 16 h. Apo-PGRMC1 or HMGB1 proteins was purified using size-exclusion chromatography in a Superdex 200 column (GE Healthcare). Heme-bound PGRMC1 was prepared by treating with 100 μM hemin and then purified using size-exclusion chromatography.
GL derivatives were dissolved in 3 mM ITC-Buffer and titrated into 100 μM apo-PGRMC1, heme-bound-PGRMC1, or HMGB1 protein. Titration was performed by injecting 2 µL of the syringe solution at intervals of 120 s. Binding isotherms were analyzed using SEDPHAT [35]. The binding of AG205 to apo- or heme-PGRMC1 (100 μM) was analyzed using a concentration of 3 mM containing 1% DMSO.

HCT116 cells = assay: Chemosensitivity MTT assay in HCT116 cells; assay type: cell-based, human; details: Homo sapiens, HCT-116, HCT116 cell viability, MTT
HuH7 cells = assay: Chemosensitivity MTT assay in HuH7 cells; assay type: cell-based, human
Method: The HCT116 cells, a human colon cancer cell line, and HuH7 cells, a human hepatoma cell line, were maintained in Dulbecco’s modified Eagle’s medium (DMEM) containing 10% fetal bovine serum (FBS) and 1% penicillin-streptomycin at 37 °C in a 5% CO2 humidified incubator. The PGRMC1 knockdown (KD) cell line was established in a previous study using lentivirus vectors.
To analyze the chemosensitivity of HCT116 or HuH7 cells, the cells were incubated with erlotinib (20 µM) or CDDP (10 µM) and either GL or GL derivatives for 24 h on a 96-well plate. Cell viability was determined using an MTT assay kit (Millipore, Burlington, MA, USA) according to the manufacturer’s instructions.

[1] = biological target: T2, interaction between PGRMC1 and EGFR (Homo sapiens, UniProt O00264); assay: Co-immunoprecipitation of PGRMC1 and EGFR in HCT116 cells; assay type: cell-based; details: HCT116, FLAG-PGRMC1 co-IP, 12 h treatment
T2 construct: mammalian FLAG-tagged expression vector pCMV-FLAG-PGRMC1 (full-length); expressed in transfected cells; host or cells: HCT116 or HuH7
Method: An expression vector of pCMV-3xFLAG-PGRMC1 or an empty vector was transfected into HCT116 cells or HuH7 cells using the transfection reagent Lipofectamine 2000 (Invitrogen). The cells were incubated overnight with either GL or GlucoGL. Cells were then lysed with NP40 lysis buffer (20 mM Tris-HCl [pH 7.5], 150 mM NaCl, and 1% NP40). The lysates were incubated with 10 μL of equilibrated anti-FLAG (M2) agarose for 60 min at room temperature. Bound proteins were washed three times and subjected to SDS-PAGE and visualized through western blotting using antibodies against FLAG, EGFR, and LDLR. For analysis of the endogenous PGRMC1-binding with FLAG-PGRMC1, HCT116 cells (1 × 10^7 cells) were treated with vehicle or 250 μM SA and/or 10 μM hemin for 48 h, and the cell lysates were co-immunoprecipitated with anti-FLAG (M2) agarose. Bound proteins (endogenous PGRMC1 and FLAG-tagged PGRMC1) were visualized through western blotting using antibody against PGRMC1.

[2] = biological target: T3, interaction between PGRMC1 and CYP3A4 (Homo sapiens, UniProt O00264); assay: In vitro binding assay between PGRMC1 and CYP3A4; details: purified proteins, co-IP
T3 construct: FLAG-PGRMC1 (a.a. 44-195); Sigma (CYP3A4 only) C4982 (CYP3A4 only)
Method: For in vitro binding assays between PGRMC1 and CYP3A4, 1 μg of purified CYP3A4 proteins (Sigma: C4982) were incubated with 10 μg of FLAG-PGRMC1 (a.a. 44-195) treated with or without GL or GlucoGL in 500 μL of binding buffer containing 20 mM HEPES-NaOH (pH 7.9), 100 mM NaCl, 0.2 mM EDTA, 10% glycerol, and 0.1% NP40 for 60 min at room temperature. Then, 10 μL of equilibrated anti-FLAG (M2) agarose was added to the mixture, which was then incubated for 60 min at room temperature. Bound proteins were washed three times with 200 μL of binding buffer and eluted with 10 μL of 2 μg/mL FLAG elution peptide (Sigma: F4799). The eluates were subjected to SDS–PAGE and visualized by Western blotting using antibodies against CYP3A4 (Santa Cruz: sc-53850) and FLAG.

HCT116 cells xenograft = assay: HCT116 xenograft in nude mice; assay type: in vivo, mouse; details: i.p. twice a week, vs control; for Tumor volume, in combination with CDDP: CDDP 2 mg/kg plus GL 400 mg/kg (day 22) or GlucoGL 100 mg/kg (from day 15)
Method: All protocols for animal experiments in this study were approved by the Experimental Animal Committee of Keio University School of Medicine (approval number: 08024-(13), approval date: 30 September 2020). HCT116 cells (2 × 10^6 cells/mouse) with half of Matrigel (Corning, NY, USA) were transplanted subcutaneously into the flank of 7-week-old nude mice. Four days after the transplantation, tumor size was measured in three dimensions with calipers and grouped by tumor volume. CDDP (2 mg/kg), GL (400 mg/kg), or GlucoGL (100 mg/kg) were administered to the mice intraperitoneally, and the tumor volume was measured twice a week for 22 days.

PGRMC1 G108W = biological target: T4, PGRMC1 G108W (Homo sapiens, UniProt O00264, G108W); assay: ITC binding of GL to PGRMC1 mutant G108W
T4 construct: human PGRMC1 intracellular domain residues 43-195; GST (N, cleaved yes); made in house; host or cells: E. coli BL21 (DE3)
Description: (§1) Bacterial expression vectors pGEX-PGRMC1 (human PGRMC1 intracellular domain residues 43-195) and mammalian FLAG-tagged expression vector pCMV-FLAG-PGRMC1 (full-length) were constructed as described previously. Expression vectors for PGRMC1 point mutants were generated by site-directed mutagenesis with PCR. For construction of HMGB1 expression vector, human HMGB1 full-length cDNA was cloned from cDNA library of HCT116 cells using the primers (Forward: 5′-[…]-3′, Reverse: 5′-[…]-[…]-3′), digested with Bam HI and Sal I, and then ligated into pGEX6P1.
(§2) ITC experiments were performed at 298 K with ITC-Buffer (50 mM phosphate [pH 7.0]) using a MicroCal iTC200 (Malvern Panalytical, Malvern, UK). GL derivatives were dissolved in […] and titrated into 100 μM apo-PGRMC1, heme-bound-PGRMC1, or HMGB1 protein. Titration was performed by injecting 2 µL of the syringe solution at intervals of 120 s. Binding isotherms were analyzed using SEDPHAT [35]. The binding of AG205 to apo- or heme-PGRMC1 (100 μM) was analyzed using a concentration of 3 mM containing 1% DMSO. The binding affinities of GL derivatives for HMGB1 (80 µM) were analyzed using a concentration of 3 mM.

PGRMC1 K132V = biological target: T5, PGRMC1 K132V (Homo sapiens, UniProt O00264, K132V); assay: ITC binding of GL to PGRMC1 mutant K132V
T5 construct: human PGRMC1 intracellular domain residues 43-195; GST (N, cleaved yes); made in house; host or cells: E. coli BL21 (DE3)
Description: as §1, §2

[3] = with CDDP (10 µM), read-out: IC50 CDDP
[4] = with erlotinib (20 µM), read-out: IC50 Erlotinib

T4 sequence (O00264 43-195 G108W): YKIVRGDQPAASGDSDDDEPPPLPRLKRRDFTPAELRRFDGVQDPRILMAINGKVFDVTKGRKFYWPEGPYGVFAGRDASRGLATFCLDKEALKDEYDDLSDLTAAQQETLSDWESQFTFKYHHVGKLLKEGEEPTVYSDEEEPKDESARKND
T1 sequence (O00264 43-195): as the sequence (O00264 43-195 G108W) above, with W66G counted along it
T5 sequence (O00264 43-195 K132V): as the sequence (O00264 43-195 G108W) above, with W66G, K90V counted along it
T3 sequence (O00264 44-195): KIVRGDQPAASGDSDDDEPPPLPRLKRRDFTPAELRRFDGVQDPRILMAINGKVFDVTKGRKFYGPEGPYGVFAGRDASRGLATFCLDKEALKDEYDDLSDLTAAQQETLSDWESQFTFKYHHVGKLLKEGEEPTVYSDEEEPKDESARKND
T2 sequence (O00264 whole entry): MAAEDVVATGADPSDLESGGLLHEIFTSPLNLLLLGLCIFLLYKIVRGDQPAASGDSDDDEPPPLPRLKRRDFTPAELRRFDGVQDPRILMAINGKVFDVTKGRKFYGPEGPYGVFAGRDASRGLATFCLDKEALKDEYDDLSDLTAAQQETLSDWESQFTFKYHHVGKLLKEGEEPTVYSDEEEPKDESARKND

| Kd (heme-dimerized PGRMC1) [µM] | TΔS (heme-dimerized PGRMC1) [K·kcal/mol] | ΔG (heme-dimerized PGRMC1) [kcal/mol] | ΔH (heme-dimerized PGRMC1) [kcal/mol] | IC50 (HCT116 cells; [3]) [µM] | IC50 (HCT116 cells; [4]) [µM] | Interaction between PGRMC1 and EGFR [1] | Interaction between PGRMC1 and CYP3A4 [2] | Binding to heme-dimerized PGRMC1 relative to binding to HMGB1 (heme-dimerized PGRMC1; ratio of KD HMGB1 / PGRMC1) [times] | Kd (PGRMC1 G108W) [µM] | TΔS (PGRMC1 G108W) [K･kcal/mol] | ΔG (PGRMC1 G108W) [kcal/mol] | ΔH (PGRMC1 G108W) [kcal/mol] | Kd (PGRMC1 K132V) [µM] | TΔS (PGRMC1 K132V) [K･kcal/mol] | ΔG (PGRMC1 K132V) [kcal/mol] | ΔH (PGRMC1 K132V) [kcal/mol] | SMILES | Cell viability with erlotinib or CDDP (HuH7 cells) | Tumor volume, in combination with CDDP (HCT116 cells xenograft) | Tumor volume, administered individually (HCT116 cells xenograft; 22 days, CDDP 2 mg/kg, GL 400 mg/kg) |
| --- | --- | --- | --- | --- | --- | --- | --- | --- | --- | --- | --- | --- | --- | --- | --- | --- | --- | --- | --- | --- |
| 1.38 | 7.44 | -8.00 | -0.56 | 14.9 | 15.7 | inhibited the interaction more potently | interfered with the interaction | – | – | – | – | – | – | – | – | – | CC1(C(=O)O)CCC2(C)CCC3(C)C(=CC(=O)C4C5(C)CCC(OC6OC(C(=O)O)C(O)C(O)C6OC6OC(CO)C(O)C(O)C6O)C(C)(C)C5CCC43C)C2C1 (stereo not drawn) [Glucoglycyrrhizin (GlucoGL), Glucoglycyrrhizin] | significantly suppressed cell viability | significantly suppressed the tumor volume | – |
| 52.7 | 4.61 | -5.84 | -1.23 | 53.1 | 52 | inhibited | interfered with the interaction | 4.23 | 185 | 1.58 | -5.09 | -3.51 | 84.6 | 4.55 | -5.56 | -1.01 | CC1(C)[C@@H](O[C@H]2O[C@H](C(=O)O)[C@@H](O)[C@H](O)[C@H]2O[C@@H]2O[C@H](C(=O)O)[C@@H](O)[C@H](O)[C@H]2O)CC[C@]2(C)[C@H]3C(=O)C=C4[C@@H]5C[C@@](C)(C(=O)O)CC[C@]5(C)CC[C@@]4(C)[C@]3(C)CC[C@@H]12 [Glycyrrhizin (GL), Glycyrrhizin] | significantly suppressed cell viability | significantly smaller | no differences in tumor volume |
